Source: ChEMBL document CHEMBL5036332, “Glucose-Lipopeptide Conjugates Reveal the Role of Glucose Modification Position in Complexation and the Potential of Malignant Melanoma Therapy” (J Med Chem, 2021)
Active and inactive are the calls of the source. The rule behind the calls is not given here. *1 amine or outer side, *2 acyl side, *3 side chain or, on linkers, in order; H or OH if unused. Where a SMILES comes first, the peptide text is derived from it. Side-chain parts run from the residue outwards. The star is where a group is joined. NH(CH2)3O(βDGlc) = OC[C@H]1O[C@@H](OCCCN*)[C@H](O)[C@@H](O)[C@@H]1O; Glutaryl = O=C(CCCC(=O)[*:2])[*:1]; Lauroyl = CCCCCCCCCCCC(=O)*

Columns and labels:
[1] = tested on: B16-F10; test: Cytotoxicity against mouse B16-F10 cells assessed as cell viability after 24 hrs by CCK-8 assay; assay type: functional, cell-based; conditions: B16-F10, 24 h
[2] = biological target: T1, Solute carrier family 2, facilitated glucose transporter member 1 (Homo sapiens) (UniProt P11166); test: Binding affinity to GLUT1 (unknown origin) membrane assessed as free energy
T1 sequence (whole entry): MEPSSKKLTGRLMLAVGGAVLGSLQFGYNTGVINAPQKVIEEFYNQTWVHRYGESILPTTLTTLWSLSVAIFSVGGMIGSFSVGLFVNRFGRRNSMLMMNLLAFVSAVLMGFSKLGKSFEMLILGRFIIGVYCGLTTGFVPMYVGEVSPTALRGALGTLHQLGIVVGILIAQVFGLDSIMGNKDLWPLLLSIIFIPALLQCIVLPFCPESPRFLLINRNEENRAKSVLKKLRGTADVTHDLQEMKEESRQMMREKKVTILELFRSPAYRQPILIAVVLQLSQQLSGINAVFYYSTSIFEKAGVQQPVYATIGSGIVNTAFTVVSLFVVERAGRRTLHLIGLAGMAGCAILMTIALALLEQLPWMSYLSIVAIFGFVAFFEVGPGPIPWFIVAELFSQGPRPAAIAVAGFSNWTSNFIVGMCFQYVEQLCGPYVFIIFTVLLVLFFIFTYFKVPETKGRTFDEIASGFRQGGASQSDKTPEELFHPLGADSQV

[3] = biological target: T1, Solute carrier family 2, facilitated glucose transporter member 1 (Homo sapiens); test: Binding affinity to GLUT1 (unknown origin) assessed as binding free energy
[4] = organism: Homo sapiens; test: Binding affinity to membrane (unknown origin) assessed as binding free energy
[5] = tested on: B16-F10; test: Antiinvasive activity against mouse B16-F10 cells assessed as inhibition of cell migration at 0.75 to 1.5 microM incubated for 72 hrs by transwell migration assay; assay type: functional, cell-based; conditions: dose 0.75-1.5 µM
[6] = tested on: B16-F10; test: Antitumor activity against mouse B16-F10 cells implanted in BALB/c mouse assessed as reduction in tumor volume at 15 mg/kg, ip administered for every 2 days; assay type: functional, organism-based; conditions: time 2.0 day
[7] = tested on: B16-F10; test: Antitumor activity against mouse B16-F10 cells implanted in KM mouse assessed as metastatic nodules in lungs at 10 mg/kg, iv administered for every 2 days measured after 9 days; assay type: functional, organism-based; conditions: time 9.0 day
[8] = tested on: B16-F10; test: Antimetastatic activity against mouse B16-F10 cells implanted in KM mouse assessed as reduction lung metastatic nodules at 200 microL of 10 mg/kg, iv administered once every 2 days by H and E staining method; assay type: functional, organism-based; conditions: time 2.0 day
[9] = Toxicity in BALB/c mouse implanted in mouse B16-F10 cells assessed as body weight change at 15 mg/kg, ip administered for days; assay type: organism-based; conditions: in vivo
[10] = tested on: B16-F10; test: Induction of cell membrane disruption in mouse B16-F10 cells incubated for 24 hrs by SYTO 9/PI staining based fluorescence microscopy; assay type: functional
[11] = tested on: B16-F10; test: Induction of cell membrane disruption in mouse B16-F10 cells assessed as membrane permeability at 5 uM incubated for 24 hrs by trypan blue staining based light microscopy; assay type: functional
[12] = tested on: B16-F10; test: Induction of cell membrane disruption in mouse B16-F10 cells assessed as shrunken morphology at 5 uM incubated for 24 hrs by scanning electron microscopy; assay type: functional, cell-based
[13] = tested on: B16-F10; test: Cytotoxicity against mouse B16-F10 cells assessed as LDH release at 3.125 to 6.25 uM incubated for 24 hrs by LDH assay; assay type: functional, cell-based; conditions: dose 3.125-6.25 µM
[14] = biological target: T1, Solute carrier family 2, facilitated glucose transporter member 1 (Homo sapiens); test: Induction of GLUT1-mediated human HeLa cell cytotoxicity assessed as cell viability at 12.5 uM incubated for 24 hrs by CCK-8 assay
[15] = biological target: T1, Solute carrier family 2, facilitated glucose transporter member 1 (Homo sapiens); test: Induction of GLUT1-mediated human A549 cell cytotoxicity assessed as cell viability at 12.5 uM incubated for 24 hrs by CCK-8 assay
[16] = tested on: B16-F10; test: Induction of GLUT1-mediated mouse B16-F10 cell cytotoxicity assessed as cell viability at 3.125 uM incubated for 24 hrs by CCK-8 assay
[17] = biological target: T1, Solute carrier family 2, facilitated glucose transporter member 1 (Homo sapiens); test: Induction of GLUT1-mediated HEK293T cytotoxicity assessed as cell viability at 3.125 uM incubated for 24 hrs by CCK-8 assay
[18] = tested on: B16-F10; test: Cytotoxicity against mouse B16-F10 cells assessed as inhibition of spheroid proliferation at 5 uM after 3 days by 3D-shperoid assay relative to control; assay type: functional, cell-based; conditions: time 3.0 day
[19] = Stability in 10% fetal bovine serum measured after 24 hrs; assay type: ADME, cell-free, Bos taurus; conditions: cattle
[20] = tested on: B16-F10; test: Anti-migration activity against mouse B16-F10 cells assessed as inhibition of spheroid migration at 2.5 uM after 3 days by crystal violet staining based assay; assay type: functional, cell-based; conditions: time 3.0 day
[21] = Toxicity in KM mouse implanted in mouse B16-F10 cells assessed as body weight change at 10 mg/kg, iv administered for days; assay type: organism-based; conditions: in vivo
[22] = Toxicity in BALB/c mouse implanted in mouse B16-F10 cells assessed as pathological changes in liver at 15 mg/kg, ip administered for days by H& E staining based assay; assay type: organism-based; conditions: in vivo
[23] = Toxicity in BALB/c mouse implanted in mouse B16-F10 cells assessed as pathological changes in spleen at 15 mg/kg, ip administered for days by H& E staining based assay; assay type: organism-based; conditions: in vivo
[24] = Toxicity in BALB/c mouse implanted in mouse B16-F10 cells assessed as pathological changes in heart at 15 mg/kg, ip administered for days by H& E staining based assay; assay type: organism-based; conditions: in vivo
[25] = tested on: B16-F10; test: Antitumor activity against mouse B16-F10 cells implanted in BALB/c mouse assessed as apoptotic cells in tumor tissue at 15 mg/kg, ip administered for 12 days by TUNEL assay; assay type: functional, organism-based; conditions: time 12.0 day
[26] = tested on: B16-F10; test: Antiproliferative activity against mouse B16-F10 cells assessed as inhibition of colony formation incubated for 12 days by crystal violet dye based assay; assay type: functional, cell-based; conditions: B16-F10, 288 h
[27] = tested on: B16-F10; test: Cytotoxicity against GLUT1 - knocked down mouse B16-F10 cells assessed as cell viability after 24 hrs by CCK-8 assay; assay type: functional, cell-based
[28] = tested on: B16-F10; test: Antiinvasive activity against mouse B16-F10 cells assessed as inhibition of cell migration at 0.75 microM incubated for 72 hrs by Matrigel based transwell invasion assay; assay type: functional

deltaG [2]	deltaG [3]	deltaG [4]	Stability [19]	SMILES	IC50 [1]	Activity [5]	Activity [6]	Activity [7]	Activity [8]	Activity [9]	Activity [10]	Activity [11]	Activity [12]	Activity [13]	Activity [14]	Activity [15]	Activity [16]	Activity [17]	Activity [18]	Activity [20]	other results
-282 kJ/mol	-278 kJ/mol	-275 kJ/mol	Stable	CCCCCCCCCCCC(=O)N[C@@H](CCCNC(=N)N)C(=O)NCC(=O)N[C@@H](Cc1c[nH]c2ccccc12)C(=O)N[C@@H](Cc1ccccc1)C(=O)N[C@@H](CCCNC(=N)N)C(=O)N[C@@H](C)C(=O)N[C@@H](CCSC)C(=O)N[C@@H](CCCNC(=N)N)C(=O)N[C@@H](CO)C(=O)N[C@H](C(=O)N[C@@H](C)C(=O)N[C@@H](CCCNC(=N)N)C(=O)N[C@@H](Cc1ccccc1)C(=O)N[C@H](C(=O)N[C@@H](C)C(=O)N[C@@H](CCCNC(=N)N)C(=O)N[C@@H](CCC(=O)O)C(=O)N[C@@H](CCCNC(=N)N)C(=O)N[C@@H](CC(C)C)C(=O)N[C@@H](CCCNC(=N)N)C(=O)N[C@@H](CCC(=O)O)C(=O)N[C@@H](Cc1cnc[nH]1)C(=O)N[C@@H](CC(C)C)C(N)=O)[C@@H](C)CC)[C@@H](C)CC (HELM PEPTIDE1{[CCCCCCCCCCCC(=O)[*:2]].R.G.W.F.R.A.M.R.S.I.A.R.F.I.A.R.E.R.L.R.E.H.L.[am]}$$$$V2.0)	3 µM	inactive	inactive	inactive	inactive	Non-Toxic	Active	Active	Active	Active	Active	Active	Active	Active	Active	Active	Activity [21]: Non-Toxic; Activity [22]: Non-Toxic; Activity [23]: Non-Toxic; Activity [24]: Non-Toxic; Activity [25]: Active
-333 kJ/mol	-326 kJ/mol	-320 kJ/mol	Stable	CCCCCCCCCCCC(=O)N[C@@H](CCCNC(=N)N)C(=O)NCC(=O)N[C@@H](Cc1c[nH]c2ccccc12)C(=O)N[C@@H](Cc1ccccc1)C(=O)N[C@@H](CCCNC(=N)N)C(=O)N[C@@H](C)C(=O)N[C@@H](CCSC)C(=O)N[C@@H](CCCNC(=N)N)C(=O)N[C@@H](CO)C(=O)N[C@H](C(=O)N[C@@H](C)C(=O)N[C@@H](CCCCNC(=O)CCCC(=O)NCCCO[C@@H]1O[C@H](CO)[C@@H](O)[C@H](O)[C@H]1O)C(=O)N[C@@H](Cc1ccccc1)C(=O)N[C@H](C(=O)N[C@@H](C)C(=O)N[C@@H](CCCNC(=N)N)C(=O)N[C@@H](CCC(=O)O)C(=O)N[C@@H](CCCNC(=N)N)C(=O)N[C@@H](CC(C)C)C(=O)N[C@@H](CCCNC(=N)N)C(=O)N[C@@H](CCC(=O)O)C(=O)N[C@@H](Cc1cnc[nH]1)C(=O)N[C@@H](CC(C)C)C(N)=O)[C@@H](C)CC)[C@@H](C)CC (Lauroyl-RGWFRAMRSIAK([Glutaryl-NH(CH2)3O(βDGlc)])FIARERLREHL-NH2)	1.9 µM	Active	Active	Active	inactive	Non-Toxic	Active	Active	Active	Active	Active	Active	Active	inactive	Active	Active	IC50 [26]: 0.37 µM; Activity [27]: inactive; Activity [28]: Active; Activity [21]: Non-Toxic; Activity [22]: Non-Toxic; Activity [23]: Non-Toxic; Activity [24]: Non-Toxic; Activity [25]: Active
